The values that follow are results of earlier work, collected in patent publication US20080160065A1 (priority 2006, published 2008).

The conditions of this data set: injected intramuscularly.

The structures appear in SMILES notation. Like-named read-outs stand apart in the source and are kept apart here.

For `CCC[C@@H]1C[C@@H](C(=O)N[C@@H]([C@H]2O[C@H](SC)[C@H](O)[C@@H](O)[C@H]2O)[C@H](C)Cl)N(C)C1` [clindamycin], the “time to peak plasma concentration” value reads like this: (adults) 2 h; (children) 1 h.
